In experiment [1] the target is HEK293 cells expressing NR1/NR2B (Homo sapiens (Human), UniProt Q05586+Q13224). The experiment is described as follows: NR2B NAM Assay (FDSS Ca2+ influx cell assay). The class given is cell-based. The conditions noted are these: NR2B NAM assay, class of inhibitory concentration; read-out: Activity Category. On the procedure:
(§1) Cell Culture and plating: HEK293 cells expressing NR1/NR2B (Chantest, Cleveland, Ohio) were grown to 70-80% confluency as an adherent monolayer in standard tissue culture flasks at 37° C., 5% CO2 per supplier's instructions. NR2B expression was induced by incubation with 0.3-0.4 μg/ml tetracycline in the presence of 4 mM ARL-15896 for 18-24 hours under the same growth conditions, then transferred to 30° C. for another 3-5 hours.
(§2) After induction, cell culture medium was removed and cells were rinsed once with Ca^2+ and Mg^2+-free Dulbecco's phosphate buffered saline. Cells were then removed from the flask using TrypLE™ Express (Life Technologies) according to the manufacturer's instructions and collected to 50 ml centrifuge tubes. Following two washes in Ca^2+/Mg^2+-free HBSS with 20 mM HEPES (HHnoCa), cells were counted and viability assessed using trypan blue. To load cells with Ca^2+-sensitive dye, they were resuspended in fluo-8 plus Component B (AAT Bioquest Products) diluted in HHnoCa and incubated 15 minutes at 37° C., followed by 30 minutes at room temp (in dark). Cells were then washed and resuspended in HHnoCa to remove extracellular dye and plated in 384-well plates (Falcon, uncoated) at 20,000-30,000 cells/well in a final volume of 25 μl/well.
(§3) FDSS Assay: To each well of the plate, 10 μL test compound, control (MK801) or HHnoCa buffer was added at different concentrations to yield final concentrations of 0.001, 0.003, 0.010, 0.030, 0.100, 0.300, 1.000, 3.000, 10.000, or 30.000 uM final concentration of DMSO of 0.1%. Following 10 minutes pre-incubation in the dark, plates are loaded onto the Hamamatsu FDSS 6000. After collecting baseline fluorescence images, 3 μM glutamate, 3 μM glycine, and 1 mM Ca^2+ in HHnoCa buffer is added to each well, and Ca^2+ is recorded for 3 minutes. Data were processed by computing ratio of fluorescence at the end of data collection to baseline fluorescence to assess degree of Ca^2+ influx inhibition relative to that observed in MK801.
(§4) Table 8 below provides activity of each compound according to the legend that “++++” indicates inhibition at a concentration<100 nM; “+++” indicates inhibition at a concentration between 100 nM and 1 μM of the disclosed compound; “++” indicates inhibition at a concentration of from 1 μM to 10 μM; and “+” indicates inhibition at a concentration>10 μM.

The target in experiment [2] is HEK293 cells expressing NR1/NR2B (Homo sapiens (Human), UniProt Q13224). In words: NR2B NAM Assay (FDSS Ca2+ influx cell assay). The conditions noted are these: Ca2+ influx inhibition relative to MK801; 3 μM glutamate, 3 μM glycine, 1 mM Ca2+; read-out: NR2B NAM IC50. It counts as cell-based. How it is done:
as §1, §2, §3, §4

These results are taken from patent US10239835B2, “N-alkylaryl-5-oxyaryl-octahydro-cyclopenta[c]pyrrole negative allosteric modulators of NR2B” (Luc Therapeutics, Inc., priority 2014, dated 2019).

Structures are written as SMILES.

Chain of HEK293 cells expressing NR1/NR2B (Homo sapiens (Human), UniProt Q13224) (Q13224 27-1484, other chains not shown): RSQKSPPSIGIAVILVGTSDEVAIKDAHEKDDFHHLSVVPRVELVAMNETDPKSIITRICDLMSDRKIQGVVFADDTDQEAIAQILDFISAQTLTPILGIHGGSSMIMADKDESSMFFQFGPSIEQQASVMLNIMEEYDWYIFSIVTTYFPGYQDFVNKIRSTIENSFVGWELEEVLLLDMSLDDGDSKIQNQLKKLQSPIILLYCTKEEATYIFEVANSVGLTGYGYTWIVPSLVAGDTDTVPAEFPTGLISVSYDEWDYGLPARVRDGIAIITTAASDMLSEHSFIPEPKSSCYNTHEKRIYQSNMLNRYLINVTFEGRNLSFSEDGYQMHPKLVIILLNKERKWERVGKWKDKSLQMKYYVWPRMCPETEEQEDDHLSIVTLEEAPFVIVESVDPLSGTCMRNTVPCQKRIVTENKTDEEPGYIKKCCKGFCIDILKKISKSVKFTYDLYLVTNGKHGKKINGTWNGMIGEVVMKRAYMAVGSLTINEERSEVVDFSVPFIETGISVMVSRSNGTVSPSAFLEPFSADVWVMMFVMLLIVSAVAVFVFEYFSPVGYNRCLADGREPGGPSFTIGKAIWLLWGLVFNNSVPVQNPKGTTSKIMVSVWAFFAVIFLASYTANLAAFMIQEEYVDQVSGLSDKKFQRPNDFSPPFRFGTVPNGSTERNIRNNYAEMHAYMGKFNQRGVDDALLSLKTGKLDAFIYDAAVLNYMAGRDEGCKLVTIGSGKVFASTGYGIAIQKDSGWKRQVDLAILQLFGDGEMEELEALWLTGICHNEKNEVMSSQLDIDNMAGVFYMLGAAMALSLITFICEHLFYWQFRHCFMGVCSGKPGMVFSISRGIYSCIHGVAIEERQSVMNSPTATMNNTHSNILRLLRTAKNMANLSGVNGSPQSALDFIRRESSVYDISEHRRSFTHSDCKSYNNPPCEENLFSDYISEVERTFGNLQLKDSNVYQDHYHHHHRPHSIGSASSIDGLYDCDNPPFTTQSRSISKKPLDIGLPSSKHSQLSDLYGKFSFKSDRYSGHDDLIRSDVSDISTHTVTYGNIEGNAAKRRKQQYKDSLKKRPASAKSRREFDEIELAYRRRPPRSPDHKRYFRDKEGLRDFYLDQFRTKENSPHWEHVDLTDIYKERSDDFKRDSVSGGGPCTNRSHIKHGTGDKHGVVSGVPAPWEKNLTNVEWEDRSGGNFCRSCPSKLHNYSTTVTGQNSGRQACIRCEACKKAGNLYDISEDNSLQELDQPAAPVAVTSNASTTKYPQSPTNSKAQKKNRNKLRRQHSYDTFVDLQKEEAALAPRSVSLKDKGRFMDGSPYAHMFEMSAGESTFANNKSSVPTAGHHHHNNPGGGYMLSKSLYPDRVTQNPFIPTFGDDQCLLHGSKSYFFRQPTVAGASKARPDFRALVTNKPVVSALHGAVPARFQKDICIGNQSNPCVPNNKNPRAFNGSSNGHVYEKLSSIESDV
Chain of HEK293 cells expressing NR1/NR2B (Homo sapiens (Human), UniProt Q05586+Q13224) (Q13224 27-1484, other chains not shown): as above

Turning to `Oc1ccc(C(O)CN2C[C@H]3C[C@H](Oc4ccc(F)c(F)c4)C[C@H]3C2)nc1` (stereo partly shown), the values for the IC50 in experiment [1] and in experiment [2] were under 100 nM and 17.8 nM, respectively.

Take `O=C(CN1C[C@H]2C[C@H](Oc3cc(F)cc(F)c3)C[C@H]2C1)c1ccc(O)cn1`: the results for the IC50 in experiment [1] and in experiment [2] were over 10000 nM and 10000 nM, respectively.

In the case of `Oc1ccc(C(O)CN2C[C@H]3C[C@H](Oc4cc(F)cc(F)c4)C[C@H]3C2)nc1` (stereo partly shown), the IC50 in experiment [1] is under 100 nM; in experiment [2] it was 58.3 nM.

With `O=C(CN1C[C@H]2C[C@H](Oc3cccnc3)C[C@H]2C1)c1ccc(O)cc1`, the IC50 in experiment [1] was under 100 nM; in experiment [2], 81.5 nM.

In the case of `O=C(CN1C[C@H]2C[C@H](Oc3cncc(Cl)c3)C[C@H]2C1)c1ccc(O)cc1`, the IC50 was 100 to 1000 nM in experiment [1] and 253 nM in experiment [2].

For `O=C(CN1C[C@H]2C[C@H](Oc3ccc(F)cc3F)C[C@H]2C1)c1ccc(O)cc1`, the IC50 was under 100 nM in experiment [1] and 41.1 nM in experiment [2].

For `Cc1ccc(O[C@H]2C[C@@H]3CN(CC(=O)c4ccc(O)cn4)C[C@@H]3C2)c(F)c1`, the IC50 in experiment [1] is 100 to 1000 nM; in experiment [2] it was 225 nM.

On to `O=C(CN1C[C@H]2C[C@H](Oc3c(F)cccc3F)C[C@H]2C1)c1ccc(O)cc1`, for which the IC50 in experiment [1] was under 100 nM; in experiment [2], 29.3 nM.

As for `Oc1ccc(C(O)CN2C[C@H]3C[C@H](Oc4c(F)cccc4F)C[C@H]3C2)nc1` (stereo partly shown), the figures for the IC50 in experiment [1] and in experiment [2] were under 100 nM and 9.6 nM, respectively.

As for `Oc1ccc(C(O)CN2C[C@H]3C[C@H](Oc4ccc(F)cc4F)C[C@H]3C2)cc1` (stereo partly shown), the IC50 is under 100 nM in experiment [1] and 8.62 nM in experiment [2].

As for `COC(CN1C[C@H]2C[C@H](Oc3ccc(F)cc3)C[C@H]2C1)c1ccc(O)cc1` (stereo partly shown), the IC50 is 100 to 1000 nM in experiment [1] and 139 nM in experiment [2].

Turning to `O=C(CN1C[C@H]2C[C@H](Oc3cnccn3)C[C@H]2C1)c1ccc(O)cc1`, the IC50 is 100 to 1000 nM in experiment [1] and 149 nM in experiment [2].

With `Oc1ccc(C(O)CN2C[C@H]3C[C@H](Oc4ccc(F)cc4)C[C@H]3C2)nc1` (stereo partly shown), the IC50 in experiment [1] is under 100 nM; in experiment [2], 4.41 nM.

Regarding `Cc1cccc(O[C@H]2C[C@@H]3CN(CC(=O)c4ccc(O)cn4)C[C@@H]3C2)c1F`, the IC50 was 100 to 1000 nM in experiment [1] and 435 nM in experiment [2].

For `COc1cccc(F)c1O[C@H]1C[C@@H]2CN(CC(=O)c3ccc(O)cn3)C[C@@H]2C1`, the values for the IC50 in experiment [1] and in experiment [2] were over 10000 nM and 10000 nM, respectively.

With `COc1ccc(F)c(O[C@H]2C[C@@H]3CN(CC(=O)c4ccc(O)cn4)C[C@@H]3C2)c1`, the IC50 in experiment [1] is over 10000 nM; in experiment [2], 10000 nM.

For `COc1cccc(F)c1O[C@H]1C[C@@H]2CN(CC(O)c3ccc(O)cn3)C[C@@H]2C1` (stereo partly shown), the IC50 in experiment [1] is 100 to 1000 nM; in experiment [2], 163 nM.

For the molecule `COc1ccc(F)c(O[C@H]2C[C@@H]3CN(CC(O)c4ccc(O)cn4)C[C@@H]3C2)c1` (stereo partly shown), the results for the IC50 in experiment [1] and in experiment [2] were 100 to 1000 nM and 547 nM, respectively.

For `COc1ccc(F)c(O[C@H]2C[C@@H]3CN(CC(=O)c4ccc(O)cc4)C[C@@H]3C2)c1`, the figures for the IC50 in experiment [1] and in experiment [2] were 100 to 1000 nM and 631 nM, respectively.

Take `COc1ccc(F)c(O[C@H]2C[C@@H]3CN(CC(O)c4ccc(O)cc4)C[C@@H]3C2)c1` (stereo partly shown): the IC50 in experiment [1] is 100 to 1000 nM; in experiment [2], 569 nM.

On to `O=C(CN1C[C@H]2C[C@H](Oc3cccc(F)c3F)C[C@H]2C1)c1ccc(O)cn1`, for which the IC50 in experiment [1] is 100 to 1000 nM; in experiment [2], 308 nM.

With `Oc1ccc(C(O)CN2C[C@H]3C[C@H](Oc4ccc(F)cc4F)C[C@H]3C2)nc1` (stereo partly shown), the IC50 in experiment [1] was under 100 nM; in experiment [2], 6.81 nM.

For `Cc1ccc(O[C@H]2C[C@@H]3CN(CC(O)c4ccc(O)cn4)C[C@@H]3C2)c(F)c1` (stereo partly shown), the IC50 was under 100 nM in experiment [1] and 14.4 nM in experiment [2].

For the molecule `COc1cccc(O[C@H]2C[C@@H]3CN(CC(=O)c4ccc(O)cn4)C[C@@H]3C2)c1F`, the IC50 is 1000 to 10000 nM in experiment [1] and 3780 nM in experiment [2].

Take `Cc1cccc(O[C@H]2C[C@@H]3CN(CC(O)c4ccc(O)cn4)C[C@@H]3C2)c1F` (stereo partly shown): the IC50 was under 100 nM in experiment [1] and 23.4 nM in experiment [2].

Regarding `Oc1ccc(C(O)CN2C[C@H]3C[C@H](Oc4cnccn4)C[C@H]3C2)cc1` (stereo partly shown), the IC50 was 100 to 1000 nM in experiment [1] and 243 nM in experiment [2].

As to `Cc1cccc(O[C@H]2C[C@@H]3CN(CC(=O)c4ccc(O)cc4)C[C@@H]3C2)c1F`, the IC50 was 100 to 1000 nM in experiment [1] and 177 nM in experiment [2].

Take `COc1cccc(O[C@H]2C[C@@H]3CN(CC(O)c4ccc(O)cn4)C[C@@H]3C2)c1F` (stereo partly shown): the IC50 is under 100 nM in experiment [1] and 50.8 nM in experiment [2].

Regarding `COc1cccc(O[C@H]2C[C@@H]3CN(CC(=O)c4ccc(O)cc4)C[C@@H]3C2)c1F`, the IC50 is 100 to 1000 nM in experiment [1] and 117 nM in experiment [2].

Regarding `Cc1cccc(O[C@H]2C[C@@H]3CN(CC(O)c4ccc(O)cc4)C[C@@H]3C2)c1F` (stereo partly shown), the IC50 in experiment [1] is under 100 nM; in experiment [2], 72.6 nM.

Turning to `COc1cccc(O[C@H]2C[C@@H]3CN(CC(O)c4ccc(O)cc4)C[C@@H]3C2)c1F` (stereo partly shown), the IC50 was under 100 nM in experiment [1] and 77.7 nM in experiment [2].

For `Cc1ccc(O[C@H]2C[C@@H]3CN(CC(=O)c4ccc(O)cn4)C[C@@H]3C2)c(F)n1`, the IC50 in experiment [1] is over 10000 nM; in experiment [2] it was 10000 nM.

With `COc1cccc(F)c1O[C@H]1C[C@@H]2CN(CC(=O)c3ccc(O)cc3)C[C@@H]2C1`, the figures for the IC50 in experiment [1] and in experiment [2] were 100 to 1000 nM and 466 nM, respectively.

On to `COc1cccc(F)c1O[C@H]1C[C@@H]2CN(CC(O)c3ccc(O)cc3)C[C@@H]2C1` (stereo partly shown), for which the IC50 is 100 to 1000 nM in experiment [1] and 249 nM in experiment [2].

For the molecule `Oc1ccc(C(O)CN2C[C@H]3C[C@H](Oc4c(F)cccc4F)C[C@H]3C2)cc1` (stereo partly shown), the IC50 was under 100 nM in experiment [1] and 26.3 nM in experiment [2].

As to `O=C(CN1C[C@H]2C[C@H](Oc3ccccc3Cl)C[C@H]2C1)c1ccc(O)cn1`, the IC50 was 1000 to 10000 nM in experiment [1] and 1660 nM in experiment [2].

As for `O=C(CN1C[C@H]2C[C@H](Oc3cncnc3)C[C@H]2C1)c1ccc(O)cc1`, the IC50 was 1000 to 10000 nM in experiment [1] and 1040 nM in experiment [2].

As for `Oc1ccc(C(O)CN2C[C@H]3C[C@H](Oc4cccc(F)c4F)C[C@H]3C2)nc1` (stereo partly shown), the IC50 was under 100 nM in experiment [1] and 8.78 nM in experiment [2].

In the case of `Cc1ccc(O[C@H]2C[C@@H]3CN(CC(=O)c4ccc(O)cc4)C[C@@H]3C2)c(F)c1`, the IC50 in experiment [1] was 100 to 1000 nM; in experiment [2], 210 nM.

On to `Cc1ccc(O[C@H]2C[C@@H]3CN(CC(O)c4ccc(O)cn4)C[C@@H]3C2)c(F)n1` (stereo partly shown), for which the IC50 in experiment [1] is under 100 nM; in experiment [2] it was 60.2 nM.

For `Oc1ccc(C(O)CN2C[C@H]3C[C@H](Oc4ccccc4Cl)C[C@H]3C2)nc1` (stereo partly shown), the IC50 in experiment [1] was under 100 nM; in experiment [2] it was 38 nM.

In the case of `O=C(CN1C[C@H]2C[C@H](Sc3ccccc3)C[C@H]2C1)c1ccc(O)cc1`, the IC50 in experiment [1] is under 100 nM; in experiment [2], 26.7 nM.

With `Oc1ccc(C(O)CN2C[C@H]3C[C@H](Sc4ccccc4)C[C@H]3C2)cc1` (stereo partly shown), the IC50 in experiment [1] was under 100 nM; in experiment [2] it was 9.36 nM.

As for `O=C(CN1C[C@H]2CC(S(=O)(=O)c3ccccc3)C[C@H]2C1)c1ccc(O)cc1` (stereo partly shown), the IC50 is 1000 to 10000 nM in experiment [1] and 3500 nM in experiment [2].

For the molecule `O=S(=O)(c1ccccc1)[C@H]1C[C@@H]2CN(CC(O)c3ccc(O)cc3)C[C@@H]2C1` (stereo partly shown), the IC50 in experiment [1] was 1000 to 10000 nM; in experiment [2], 4370 nM.

Regarding `O=C(CN1C[C@H]2C[C@H](S(=O)(=O)c3ccccc3)C[C@H]2C1)c1ccc(O)c(F)c1`, the results for the IC50 in experiment [1] and in experiment [2] were over 10000 nM and 10000 nM, respectively.

Consider `O=S(=O)(c1ccccc1)[C@H]1C[C@@H]2CN(CC(O)c3ccc(O)c(F)c3)C[C@@H]2C1` (stereo partly shown), for which the figures for the IC50 in experiment [1] and in experiment [2] were over 10000 nM and 10000 nM, respectively.
